Patent US8673913B2, “SHP-2 phosphatase inhibitor” (Case Western Reserve University, priority 2009, dated 2014)

What was measured:
[1] = biological target: T1, SHP-2 PTP domain GST fusion protein (Homo sapiens, UniProt Q06124); test: in vitro protein tyrosine phosphatase assay, SHP-2 (Malachite Green); format: biochemical; parameters: SHP-2 PTP domain GST fusion protein purified in house was used as the enzyme; made in house; conditions: compound at 100 μM; read-out: inhibition of SHP-2 enzymatic activity
T1 sequence (Q06124 247-517 limits assumed): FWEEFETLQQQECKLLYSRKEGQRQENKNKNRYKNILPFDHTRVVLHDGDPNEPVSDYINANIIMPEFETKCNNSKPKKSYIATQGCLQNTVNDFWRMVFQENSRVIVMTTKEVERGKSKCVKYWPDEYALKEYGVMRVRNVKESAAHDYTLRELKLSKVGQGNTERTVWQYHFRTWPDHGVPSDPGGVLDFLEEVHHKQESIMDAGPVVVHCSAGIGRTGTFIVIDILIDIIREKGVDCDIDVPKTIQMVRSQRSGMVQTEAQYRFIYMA
Text: Candidate compounds were screened using the in vitro protein tyrosine phosphatase (PTP) assay kit (Sigma, St. Lois, Mo.). SHP-2 PTP domain GST fusion protein purified in house was used as the enzyme and a phospho-peptide corresponding to the surrounding sequence of pTyr^1146 in the insulin receptor (Thr-Arg-Asp-Ile-Tyr[PO3H2]-Glu-Thr-Asp-Tyr-Tyr) were used as the substrate. The assay determines free phosphate generated by dephosphorylation of the PTP substrate using the Malachite Green reagent. Briefly, 0.5 μg of GST-SHP-2 PTP was incubated in 40 μL assay buffer (25 mM Tris-HCl, PH7.4, 50 mM NaCl, 5 mM DTT, and 2.5 mM EDTA) with test compounds at various concentrations or DMSO at room temperature for 30 min. The PTP substrate was then added to a final concentration of 0.2 mM. The system was incubated at 30° C. for 30 min. Finally, 50 μl of Malachite Green solution was added and OD620 was measured after 5 min. In the phosphatase assays for SHP-1, CD45, TC-PTP, PTP-MEG2 (PTPN9), and LAR (PTPRF), procedures were similar, with the exception that GST-SHP-1, GST-CD45 cytoplasmic domain, GST-TC-PTP, GST-PTP-MEG2 PTP domain, and GST-LAR PTP domain purchased from Biomol International, L.P. (Plymouth Meeting, Pa.) were used instead as the enzymes.
Candidate compounds identified by CADD were screened by the in vitro tyrosine phosphatase assay as described in the Experimental Section. The GST-SHP-2 PTP domain fusion protein was incubated with the compounds at room temperature for 30 min before the phospho-peptide substrate was added to the assay systems, allowing compounds to bind to target sites in SHP-2. Each test compound was dissolved in DMSO. Initial concentration of the test compounds was 100 μM. In the experimental assay, DMSO was included as the negative control and sodium orthovanadate (100 μM), a general non-specific tyrosine phosphatase inhibitor, was used as the positive control. From the 165 commercially available compounds tested, we identified 9 compounds that inhibit SHP-2 catalytic activity with various efficiencies (FIG. 3A). […] The inhibitory effects of the compounds were dose-dependent.

[2] = biological target: T1, SHP-2 PTP domain GST fusion protein; test: fluorescence titration (quenching of SHP-2 fluorescence); format: binding; parameters: Purified SHP-2 PTP domain GST-fusion protein was diluted into 20 mM Tris-HCl; made in house; conditions: SHP-2 protein 3 μM, excitation 295 nm
Method: For all experiments, Purified SHP-2 PTP domain GST-fusion protein was diluted into 20 mM Tris-HCl, pH 7.5. Fluorescence spectra were recorded with a Luminescence Spectrometer LS50 (Perkin-Elmer, Boston, Mass.). Titrations were performed by increasing the test compound concentration while maintaining the SHP-2 protein concentration at 3 μM. Contributions from background fluorescence of the inhibitors were accounted for by subtracting the fluorescence of the inhibitors alone from the of the protein-inhibitor solution. The excitation wavelength was 295 nm and fluorescence was monitored from 360 to 500 nm. All reported fluorescence intensities are relative values and are not corrected for wavelength variations in detector response.
To validate that the active compounds identified were binding directly to the SHP-2 protein, we determined whether the active compounds directly interacted with the SHP-2 PTP domain using fluorescence quenching and taking advantage of the four tryptophans in the PTP domain, with Trp248 located 15 Å from the putative pY+5 pocket and Trp423 located 8 Å from the phosphatase active site. […] Therefore, their binding to SHP-2 protein could not be determined using this measurement. Thus, the fluorescence quenching experiments indicate that at least four active compounds identified do directly bind to SHP-2, thereby leading to their biological activities.

Compound	inhibition at 100 µM [1]	quenching of SHP-2 fluorescence [2]
CCc1ccc(OCC(=O)Nc2ccc(S(N)(=O)=O)cc2)cc1 [#270]		did not show significant quenching
CSc1ccc(C2C(C#N)=C(N)Oc3[nH]nc(-c4ccccc4Cl)c32)cc1 (centres unmarked) [#284]		strong quenching

Other lines, results leading:

inhibition at 100 µM [1]	quenching of SHP-2 fluorescence [2]	Compound
45%		O=C(CCCn1c(=O)c2cccn2c2cccnc21)NCc1ccccc1F [#212]
40%		CNC(=S)NNC(=O)c1csc(-c2cccs2)n1 [#226]
	did not show significant quenching	CNC(=S)NNC(=O)CSCCS(=O)(=O)c1ccccc1 [#234]
